Laboratory results as given in patent publication US20070128217A1 (priority 2003, published 2007).

Tests used:
[1] = test system: rabbit serum obtained by immunizing a rabbit with the SARS-CoV strain Frankfurt 1; type: binding; set-up: Binding of a rabbit serum to linear peptides / Binding of a rabbit serum to looped peptides / Rabbit serum linear peptides / Rabbit serum looped peptides / Binding of a rabbit serum to linear peptides of protein N of SARS-CoV Urbani (Rabbit serum linear peptides) / Binding of a rabbit serum to looped/cyclic peptides of protein N of SARS-CoV Urbani (Rabbit serum looped peptides): unit not given here
[2] = test system: control sera (pooled serum of ten healthy LUMC hospital workers; commercial negative donor pooled serum from the Dutch bloodbank); type: binding, human; set-up: Binding of Control serum LUMC to linear peptides / Binding of Control serum Blood-bank to linear peptides / Binding of Control serum LUMC to looped peptides / Binding of Control Serum Blood-Bank to Looped peptides / Binding of Control serum LUMC to linear peptides of the protein M of SARS-CoV Urbani / Binding of Control serum Blood-bank to linear peptides of the protein M of SARS-CoV Urbani / Binding of Control serum LUMC to looped peptides of the protein M of SARS-CoV Urbani / Binding of Control Serum Blood-Bank to Looped peptides of the protein M of SARS-CoV Urbani: unit not given here
[3] = test system: antibodies in sera from SARS patients (sera 1a, 1b, 2, 6, 37, 62, London, SARS-yellow, SARS-green); type: binding, human; set-up: Binding of serum 6 to linear peptides of protein X1 of SARS-CoV Urbani / Binding of serum 37 to linear peptides of protein X1 of SARS-CoV Urbani / Binding of serum 6 to looped/cyclic peptide (PEPSCAN-ELISA) / Binding of serum 37 to looped/cyclic peptide (PEPSCAN-ELISA) / Binding of serum 37 to looped/cyclic peptides of protein X1 of SARS-CoV Urbani / Binding of serum 6 to linear peptides of protein X2 / Binding of serum 37 to linear peptides of protein X2 / Binding of serum 37 to looped/cyclic peptides of protein X2 of SARS-CoV Urbani / Binding of serum 6 to linear peptides of protein M of SARS-CoV Urbani / Binding of serum 37 to linear peptides of protein M of SARS-CoV Urbani / Binding of serum 6 to looped/cyclic peptides of protein M of SARS-CoV Urbani / Binding of serum 37 to looped/cyclic peptides of protein M of SARS-CoV Urbani / Binding of serum 6 to linear peptides of protein X3 of SARS-CoV Urbani / Binding of serum 37 to linear peptides of protein X3 of SARS-CoV Urbani / Binding of serum 37 to looped/cyclic peptides of protein X3 of SARS-CoV Urbani / Binding of serum 6 to linear peptides of protein X4 of SARS-CoV Urbani / Binding of serum 37 to linear peptides of protein X4 of SARS-CoV Urbani / Binding of serum 37 to looped/cyclic peptides of protein X4 of SARS-CoV Urbani / Binding of serum 6 to linear peptides of protein X5 of SARS-CoV Urbani / Binding of serum 37 to linear peptides of protein X5 of SARS-CoV Urbani / Binding of serum 37 to looped/cyclic peptides of protein X5 of SARS-CoV Urbani / Binding of serum 6 to linear peptides of protein N of SARS-CoV Urbani / Binding of serum 37 to linear peptides of protein N of SARS-CoV Urbani / Binding of serum 6 to linear peptide (PEPSCAN-ELISA) / Binding of serum 1a to looped/cyclic peptides of protein N of SARS-CoV Urbani / Binding of serum 1b to looped/cyclic peptides of protein N of SARS-CoV Urbani / Binding of serum 2 to looped/cyclic peptides of protein N of SARS-CoV Urbani / Binding of serum 6 to looped/cyclic peptides of protein N of SARS-CoV Urbani / Binding of serum 37 to looped/cyclic peptides of protein N of SARS-CoV Urbani / Binding of serum 62 to looped/cyclic peptides of protein N of SARS-CoV Urbani / Binding of serum London to looped/cyclic peptides of protein N of SARS-CoV Urbani / Binding of serum SARS-green to looped/cyclic peptides of protein N of SARS-CoV Urbani: unit not given here

QLALYKGFQFICNLL
Binding of a rabbit serum to linear peptides [1]: 0.3 | Binding of a rabbit serum to looped peptides [1]: 0.6 | Binding of Control Serum Blood-Bank to Looped peptides [2]: 0.5 | Binding of Control serum Blood-bank to linear peptides [2]: 0.6 | Binding of Control serum LUMC to linear peptides [2]: 0.5 | Binding of Control serum LUMC to looped peptides [2]: 0.6 | Binding of serum 1a to looped/cyclic peptide (PEPSCAN-ELISA) [3]: 0.5 | Binding of serum 1b to looped/cyclic peptide (PEPSCAN-ELISA) [3]: 0.4 | Binding of serum 2 to looped/cyclic peptide (PEPSCAN-ELISA) [3]: 0.4 | Binding of serum 6 to looped/cyclic peptide (PEPSCAN-ELISA) [3]: 1.2 | Binding of serum 37 to looped/cyclic peptide (PEPSCAN-ELISA) [3]: 0.5 | Binding of serum 62 to looped/cyclic peptide (PEPSCAN-ELISA) [3]: 0.5 | Binding of serum London to looped/cyclic peptide (PEPSCAN-ELISA) [3]: 1.5 | Binding of serum SARS-green to looped/cyclic peptide (PEPSCAN-ELISA) [3]: 0.3 | Binding of serum SARS-yellow to looped/cyclic peptide (PEPSCAN-ELISA) [3]: 0.5

QRVGTDSGFAAYNRY
Rabbit serum linear peptides [1]: 0.4 | Rabbit serum looped peptides [1]: 0.0 | Binding of Control Serum Blood-Bank to Looped peptides of the protein M of SARS-CoV Urbani [2]: 0.7 | Binding of Control serum Blood-bank to linear peptides of the protein M of SARS-CoV Urbani [2]: 0.6 | Binding of Control serum LUMC to linear peptides of the protein M of SARS-CoV Urbani [2]: 0.3 | Binding of Control serum LUMC to looped peptides of the protein M of SARS-CoV Urbani [2]: 0.8 | Binding of serum 1a to linear peptides of protein M of SARS-CoV Urbani [3]: 0.7 | Binding of serum 1a to looped/cyclic peptides of protein M of SARS-CoV Urbani [3]: 0.6 | Binding of serum 1b to linear peptides of protein M of SARS-CoV Urbani [3]: 0.5 | Binding of serum 1b to looped/cyclic peptides of protein M of SARS-CoV Urbani [3]: 0.5 | Binding of serum 2 to linear peptides of protein M of SARS-CoV Urbani [3]: 0.5 | Binding of serum 2 to looped/cyclic peptides of protein M of SARS-CoV Urbani [3]: 0.5 | Binding of serum 6 to linear peptides of protein M of SARS-CoV Urbani [3]: 0.3 | Binding of serum 6 to looped/cyclic peptides of protein M of SARS-CoV Urbani [3]: 0.6 | Binding of serum 37 to linear peptides of protein M of SARS-CoV Urbani [3]: 0.7 | Binding of serum 37 to looped/cyclic peptides of protein M of SARS-CoV Urbani [3]: 0.6 | Binding of serum 62 to linear peptides of protein M of SARS-CoV Urbani [3]: 0.7 | Binding of serum 62 to looped/cyclic peptides of protein M of SARS-CoV Urbani [3]: 0.5 | Binding of serum London to linear peptides of protein M of SARS-CoV Urbani [3]: 0.3 | Binding of serum London to looped/cyclic peptides of protein M of SARS-CoV Urbani [3]: 0.2 | Binding of serum SARS-green to linear peptides of protein M of SARS-CoV Urbani [3]: 0.3 | Binding of serum SARS-green to looped/cyclic peptides of protein M of SARS-CoV Urbani [3]: 0.3 | Binding of serum SARS-yellow to linear peptides of protein M of SARS-CoV Urbani [3]: 0.1 | Binding of serum SARS-yellow to looped/cyclic peptides of protein M of SARS-CoV Urbani [3]: 0.6

QSTALQELLIQQWIQ
Binding of a rabbit serum to linear peptides [1]: 0.2 | Binding of a rabbit serum to looped peptides [1]: 0.4 | Binding of Control Serum Blood-Bank to Looped peptides [2]: 0.6 | Binding of Control serum Blood-bank to linear peptides [2]: 0.6 | Binding of Control serum LUMC to linear peptides [2]: 0.4 | Binding of Control serum LUMC to looped peptides [2]: 0.6 | Binding of serum 1a to linear peptides of protein X2 [3]: 0.6 | Binding of serum 1a to looped/cyclic peptides of protein X2 of SARS-CoV Urbani [3]: 0.6 | Binding of serum 1b to linear peptides of protein X2 [3]: 0.4 | Binding of serum 1b to looped/cyclic peptides of protein X2 of SARS-CoV Urbani [3]: 0.5 | Binding of serum 2 to linear peptides of protein X2 [3]: 0.4 | Binding of serum 2 to looped/cyclic peptides of protein X2 of SARS-CoV Urbani [3]: 0.4 | Binding of serum 6 to linear peptides of protein X2 [3]: 0.4 | Binding of serum 6 to looped/cyclic peptides of protein X2 of SARS-CoV Urbani [3]: 0.2 | Binding of serum 37 to linear peptides of protein X2 [3]: 0.5 | Binding of serum 37 to looped/cyclic peptides of protein X2 of SARS-CoV Urbani [3]: 0.4 | Binding of serum 62 to linear peptides of protein X2 [3]: 0.5 | Binding of serum 62 to looped/cyclic peptides of protein X2 of SARS-CoV Urbani [3]: 0.6 | Binding of serum London to linear peptides of protein X2 [3]: 0.5 | Binding of serum London to looped/cyclic peptides of protein X2 of SARS-CoV Urbani [3]: 0.2 | Binding of serum SARS-green to linear peptides of protein X2 [3]: 0.6 | Binding of serum SARS-green to looped/cyclic peptides of protein X2 of SARS-CoV Urbani [3]: 0.4 | Binding of serum SARS-yellow to linear peptides of protein X2 [3]: 0.4 | Binding of serum SARS-yellow to looped/cyclic peptides of protein X2 of SARS-CoV Urbani [3]: 0.4
